In PubChem BioAssay AID256 (DTP/NCI, 2004):
“And” between values parts separate entries of the source, which are not always exact repeats. Equal values may be shown once. Inconclusive results and toxic doses are left out. How the source made its calls: active means survival T/C of 150% or more; inactive means T/C below 125% in these data.

Tested on: CD2F1 mice, L1210 leukemia ip, survival T/C
Assay: NCI In Vivo Anticancer Drug Screen. Data for tumor model L1210 Leukemia (intraperitoneal) in CD2F1 (CDF1) mice
Conditions: higher = longer survival
Summary of the method: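 Read-out first: treated-group measurement over vehicle-control measurement, expressed as a ratio. Animals bore a transplanted tumor line and were dosed with compound or vehicle.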

[1] = endpoint: mean survival time, dose: 2.5 mg/kg/injection, schedule: Q01DX009 (ip), vehicle: Klucel (hydroxypropylcellulose) (HPC)
[2] = endpoint: mean survival time, dose: 5.0 mg/kg/injection, schedule: Q01DX009 (ip), vehicle: Klucel (hydroxypropylcellulose) (HPC)
[3] = endpoint: mean survival time, dose: 10.0 mg/kg/injection, schedule: Q01DX009 (ip), vehicle: Klucel (hydroxypropylcellulose) (HPC)
[4] = endpoint: mean survival time, dose: 100.0 mg/kg/injection, schedule: Q04DX003 (ip), vehicle: saline with Tween-80
[5] = endpoint: mean survival time, dose: 200.0 mg/kg/injection, schedule: Q04DX003 (ip), vehicle: saline with Tween-80
[6] = endpoint: mean survival time, dose: 400.0 mg/kg/injection, schedule: Q04DX003 (ip), vehicle: saline with Tween-80
[7] = endpoint: mean survival time, dose: 100.0 mg/kg/injection, schedule: Q01DX009 (ip), vehicle: saline with Tween-80
[8] = endpoint: mean survival time, dose: 200.0 mg/kg/injection, schedule: Q01DX009 (ip), vehicle: saline with Tween-80
[9] = endpoint: mean survival time, dose: 400.0 mg/kg/injection, schedule: Q01DX009 (ip), vehicle: saline with Tween-80

Measured: T/C

CC1(C)OCC(C2CCC3(C)C4=CCC5C(C)(C)C(O)CCC5(C)C4CCC23C)CC(O)C1O (stereo not drawn)
inactive: [1] 101 % of control | [2] 95 % of control | [3] 97 % of control

CN(C)c1ccc(/C=C/c2nc3ccccc3o2)cc1
inactive: endpoint: mean survival time, dose: 100.0 mg/kg/injection, schedule: Q04DX003 (ip), vehicle: Klucel (hydroxypropylcellulose) (HPC) 96 % of control | endpoint: mean survival time, dose: 200.0 mg/kg/injection, schedule: Q04DX003 (ip), vehicle: Klucel (hydroxypropylcellulose) (HPC) 100 % of control | endpoint: mean survival time, dose: 400.0 mg/kg/injection, schedule: Q04DX003 (ip), vehicle: Klucel (hydroxypropylcellulose) (HPC) 102 % of control

O=C(CC(O)(C(F)(F)F)C(F)(F)F)CC(O)(C(F)(F)F)C(F)(F)F
inactive: endpoint: mean survival time, dose: 5.0 mg/kg/injection, schedule: Q01DX001 (ip), vehicle: saline with Tween-80 94 % of control | endpoint: mean survival time, dose: 5.0 mg/kg/injection, schedule: Q04DX003 (ip), vehicle: saline 102 % of control | endpoint: mean survival time, dose: 10.0 mg/kg/injection, schedule: Q04DX003 (ip), vehicle: saline 92 % of control

CC(C)(O)C1OCC(C2CCC3(C)C4=CCC5C(C)(C)C(O)CCC5(C)C4CCC23C)CC1O (stereo not drawn)
inactive: [1] 94 % of control | [2] 103 % of control | [3] 88 % of control

C1CC(N2CC2)CCC1N1CC1 (stereo not drawn)
inactive: endpoint: mean survival time, dose: 9.0 mg/kg/injection, schedule: Q04DX003 (ip), vehicle: saline 124 % of control | endpoint: mean survival time, dose: 13.0 mg/kg/injection, schedule: Q04DX003 (ip), vehicle: saline 110 % of control | endpoint: mean survival time, dose: 20.0 mg/kg/injection, schedule: Q04DX003 (ip), vehicle: saline 86 % of control
active: endpoint: mean survival time, dose: 6.0 mg/kg/injection, schedule: Q04DX003 (ip), vehicle: saline 169 % of control

NC(=O)Nc1n[nH]c(-c2ccccc2)n1
inactive: [4] 93 % of control | [5] 91 % of control | [6] 91 % of control

Cc1cc(C)c(CC2(C)SCCCS2)c(C)c1
inactive: endpoint: median survival time, dose: 50.0 mg/kg/injection, schedule: Q04DX002 (ip), vehicle: saline with Tween-80 100 % of control | endpoint: median survival time, dose: 100.0 mg/kg/injection, schedule: Q04DX002 (ip), vehicle: saline with Tween-80 100 % of control | endpoint: median survival time, dose: 200.0 mg/kg/injection, schedule: Q04DX002 (ip), vehicle: saline with Tween-80 100 % of control | endpoint: median survival time, dose: 400.0 mg/kg/injection, schedule: Q04DX002 (ip), vehicle: saline with Tween-80 110 % of control

C=CCOC(OCC=C)C(OCC=C)OCC=C
inactive: [4] 102 % of control | [5] 96 % of control | [6] 96 % of control

COC(=O)NS(=O)(=O)Nc1ccccc1
inactive: [7] 93 % of control | [8] 93 % of control | [9] 87 % of control

O=C(O)CCCCSc1ncnc2nc[nH]c12
inactive: [7] 90 % of control | [8] 95 % of control | [9] 102 % of control

O=C1C=CC(=CC=C2C=CN(CCCCCCCCCCCO)C=C2)C=C1
inactive: endpoint: median survival time, dose: 1.56 mg/kg/injection, schedule: Q01DX005 (ip), vehicle: saline with Tween-80 96 % of control | endpoint: median survival time, dose: 2.25 mg/kg/injection, schedule: Q01DX005 (ip), vehicle: saline with Tween-80 102 % of control and 105 % of control | endpoint: median survival time, dose: 3.13 mg/kg/injection, schedule: Q01DX005 (ip), vehicle: saline with Tween-80 107 % of control | endpoint: median survival time, dose: 3.75 mg/kg/injection, schedule: Q01DX005 (ip), vehicle: saline with Tween-80 102 % of control and 105 % of control | endpoint: median survival time, dose: 6.25 mg/kg/injection, schedule: Q01DX005 (ip), vehicle: saline with Tween-80 117 % of control and 109 % of control | endpoint: median survival time, dose: 10.4 mg/kg/injection, schedule: Q01DX005 (ip), vehicle: saline with Tween-80 118 % of control | endpoint: median survival time, dose: 10.41 mg/kg/injection, schedule: Q01DX005 (ip), vehicle: saline with Tween-80 118 % of control | endpoint: median survival time, dose: 12.5 mg/kg/injection, schedule: Q01DX005 (ip), vehicle: saline with Tween-80 119 % of control | endpoint: median survival time, dose: 17.35 mg/kg/injection, schedule: Q01DX005 (ip), vehicle: saline with Tween-80 119 % of control | endpoint: median survival time, dose: 17.4 mg/kg/injection, schedule: Q01DX005 (ip), vehicle: saline with Tween-80 121 % of control | endpoint: median survival time, dose: 25.0 mg/kg/injection, schedule: Q01DX005 (ip), vehicle: saline with Tween-80 92 % of control
